In PMC11595589, “A Pharmacokinetic and Bioavailability Study of Ecklonia cava Phlorotannins Following Intravenous and Oral Administration in Sprague–Dawley Rats” (Marine Drugs, 2024):
Like-named read-outs stand apart in the source and are kept apart here. Marks after values point to notes of the source that are not given here.

Experiment: Single-dose pharmacokinetics after IV bolus administration of EK-ECP
Type: in vivo, male Sprague–Dawley rats
Settings: IV bolus 10 mg/kg EK-ECP; for T1/2 (terminal half-life) / half-life / AUC(0-t) / Vd / AUC(0-inf) / MRT last / C0: mean (CV); for T1/2 (terminal half-life) / half-life / AUC(0-t) / Vd: 10 mg/kg; for Tlast: median (minimum-maximum); for half-life / AUC(0-t) / Vd / AUC(0-inf) / MRT last / C0 / clearance: male, Sprague-Dawley, rat; for half-life / AUC(0-t) / Vd: iv; for clearance: read-out: Mean clearance (Cl) (converted)
Procedure: EK-ECP was administered to male Sprague–Dawley rats by either IV bolus (Group 1, 10 mg/kg) or oral gavage (Groups 2, 3 or 4, at 10, 100 or 1000 mg/kg, respectively) administration. Blood collection intervals were pre dose (0), and 0.25, 0.5, 1, 2, 4, 6, 8, 12, 24 and 36 h post dose. Plasma samples were analyzed for concentrations of 8,8′-bieckol, dieckol, and PFF-A; all pre-dose sample results were less than the lower limit of quantitation (LLOQ < 1 ng/mL). The time profiles of the plasma concentrations of 8,8′-bieckol, dieckol, and PFF-A in individual animals are illustrated in Figure 4. The mean pharmacokinetic parameters and corresponding coefficient of variation (CV) following IV administration of 10 mg/kg EK-ECP to male rats are illustrated in Table 1. Those following oral administrations of 10, 100 and 1000 mg/kg EK-ECP to male rats are illustrated in Table 2.
Total of 20 male CD® [Crl:CD®(SD)] rats (approximately 11.5 weeks of age) obtained from Charles River Laboratories (Portage, MI, USA) were used in our study. These included five rats with both jugular and femoral vein cannulations, and 15 rats with jugular vein cannulations. Of the 20 animals received, 16 male rats were placed in the study, comprising four rats with both jugular and femoral vein cannulations, and 12 rats with jugular vein cannulations. The rats were housed in the Mattawan facility of MPI Research Inc (currently Charles River Laboratories, Mattawan, MI, USA). Animal welfare for this study was in compliance with the U.S. Department of Agriculture’s (USDA) Animal Welfare Act (9 CFR Parts 1, 2 and 3). This facility maintained an animal welfare assurance statement with the National Institutes of Health Office of Laboratory Animal Welfare. All procedures were approved before the study by the institutional animal care utilization committee. Animals were individually housed and fed a basal diet of Lab Diet Certified Rodent Diet #5002, PMI Nutrition International, Inc. Food and water was available ad libitum except during fasting periods, when food was withheld, and during any required restraint periods, when both food and water were withheld. Animal rooms were maintained at (20 ± 2) °C and (50 ± 20)% relative humidity with a 12 h light/dark cycle throughout the study.
For intravenous administration, EK-ECP was dissolved in 70/25/5 (v/v) phosphate-buffered saline (PBS)/propylene glycol/ethanol (pH 5.1 final concentration of 2 mg/mL) and stabilized at room temperature for 24 h. For oral administration, after an amount of EK-ECP appropriate to the final targeted formulation concentrations was weighed and placed in a bottle, a small amount of the vehicle (water for injection) was added and mixed using a vortex mixer and heated to between 60 to 70 °C until homogeneously suspended. Additional amounts of the vehicle were gradually added to yield the targeted EK-ECP concentrations (1, 10, and 100 mg/mL). Dosing occurred within 4 h after preparation completion. The individual constituent doses of dieckol, 8,8′-bieckol, and PFF-A in each dosing formulation were analyzed by RP-HPLC followed by interpolation of the corresponding area% to the calibration curve prepared with known concentrations of isolated standards. The animals were fasted for a minimum of 4 h prior to dosing and through the first 4 h of blood sample collection. Each animal in Group 1 received a single intravenous (IV) dose of the 10 mg/kg EK-ECP. The intravenous doses were administered as a slow bolus injection over 5 min through the femoral vein cannula. The cannula was flushed with approximately 0.3 mL of sterile 0.9% sodium chloride for injection, USP, immediately following dosing. Each animal in Groups 2, 3 and 4 received a single oral (PO) gavage dose of the appropriate test article formulation, as outlined Table 3. Oral gavage dosing formulations were continuously stirred throughout dosing. […]

[1] = plasma, ln(2)·MRTlast, read-out: Effective T1/2 (converted)
[2] = plasma, read-out: T1/2 (terminal half-life) (converted)

SMILES | plasma concentrations quantifiable up to [h] | T1/2 (terminal half-life) | Tlast | half-life [1] [h] | AUC(0-t) (plasma, read-out: AUC(0–24h)) [ng·h/mL] | AUC(0-t) (plasma, read-out: AUCTlast) [ng·h/mL] | half-life [2] [h] | Vd (plasma, read-out: Vss) [L/kg] | Vd (plasma, read-out: Vz) [L/kg] | AUC(0-inf) (plasma) [ng·h/mL] | MRT last (plasma) [h] | clearance (plasma) [mL/min/kg] | C0 (plasma) [ng/mL] | other results
Oc1cc(O)cc(Oc2c(O)cc(O)c3c2Oc2c(cc(O)c(-c4c(O)cc5c(c4O)Oc4c(Oc6cc(O)cc(O)c6)c(O)cc(O)c4O5)c2O)O3)c1 [8,8′-bieckol] | 36 | 9.42 (9) h | 36 (36–36) h | – | – | – | – | – | – | – | – | – | – | half-life (in vivo, ln(2)·MRTlast, read-out: Effective T1/2 (converted)): 1.3 h; AUC(0-t) (in vivo, read-out: AUC(0–24h)): 6540 ng·h/mL; AUC(0-t) (in vivo, read-out: AUCTlast): 6620 ng·h/mL; half-life (in vivo, read-out: T1/2 (terminal half-life) (converted)): ~9.42 h; Vd (in vivo, read-out: Vss): 0.366 L/kg; Vd (in vivo, read-out: Vz): 2.2 L/kg; AUC(0-inf) (in vivo): 6670 ng·h/mL; MRT last (in vivo): 1.88 h; C0 (in vivo, plasma): 7220 ng/mL; clearance (in vivo): 2.7 mL/min/kg
Oc1cc(O)cc(Oc2c(O)cc(O)c3c2Oc2c(O)cc4oc5c(Oc6cc(O)cc(O)c6)c(O)cc(O)c5c4c2O3)c1 [PFF-A, phlorofucofuroeckol-A] | 2 | 0.731 (4) ^c h | 2 (1–2) h | 0.36 | 9.03 | 7.81 | ~0.731 | 77.6 | 89.2 | 10.1 | 0.52 | 1400 | 12.8 | –
Oc1cc(O)cc(Oc2c(O)cc(O)c3c2Oc2c(O)cc(Oc4c(O)cc(Oc5c(O)cc(O)c6c5Oc5c(O)cc(O)cc5O6)cc4O)cc2O3)c1 [dieckol] | 36 | 11.9 (7) h | 36 (36–36) h | 1.48 | 5190 | 5290 | ~11.9 | 0.57 | 3.35 | 5390 | 2.14 | 3.22 | 8890 | –
